# US8932597B2 (priority 2008, dated 2015)
# Assays:
# [1] = test system: anti-M2 human monoclonal antibody Z3G1; type: binding
# [2] = test system: HuM2e antibody 23K12; type: binding, human
Substance,Signal (peptides that bind to Z3G1) [1],Signal (peptides that bind to 23K21 and 8I10) [2],Signal (peptides that show specific binding to Z3G1) [1]
460 (MSLLTECGMSLLCEV; epitope peptide) [compound 460],2373,1268,–
645 (SLLTEVVTPIRNEWGCRCNDSSD; epitope peptide) [compound 645],–,763,1492
566 (SLLTEVCTPIRNEWGCRCNDSSD; epitope peptide) [compound 566],–,881,1210
586 (SLLTEVETPIRNEWGCRCNISSD; epitope peptide) [compound 586],2517,851,–
635 (SLLTEVEAPIRNEWGCRCNDSSD; epitope peptide) [compound 635],–,769,2325
384 (SLLTEVETPIRNEYGCRCNDSSD; epitope peptide) [compound 384],–,1377,2426
457 (SLLTEVETPMRNEWGCRCNDSSD; epitope peptide) [compound 457],–,1281,2297
519 (SLLTEVETPIRNEWGCRSNDSSD; epitope peptide) [compound 519],–,1016,2344
293 (CSLLTEVGMSLLTEV; epitope peptide) [compound 293],2827,2039,–
504 (SLLTEVETPIRNEWGFRCNDSSD; epitope peptide) [compound 504],–,1057,2349
690 (SLLTEVHTPIRNEWGCRCNDSSD; epitope peptide) [compound 690],–,722,2057
568 (SLLTEVETPIRNEWGCRCQDSSD; epitope peptide) [compound 568],2438,877,–
283 (CSLLTEVGSLLTEV; epitope peptide) [compound 283],–,2494,2903
689 (SLLTEVETPIRNEWGCRCGDSSD; epitope peptide) [compound 689],2343,724,–
446 (SLLTEVETPIRNEWGCRCND; epitope peptide) [compound 446],2276,738,–
449 (SLNTEVETPIRNEWGCRCNDSSD; epitope peptide) [compound 449],–,1333,1908
510 (SLRTEVETPIRNEWGCRCNDSSD; epitope peptide) [compound 510],–,1047,1034
393 (SLLTEVETPIRNEWGCRCNLSSD; epitope peptide) [compound 393],2634,1334,–
585 (SLLTEVETPIRLEWGCRCNDSSD; epitope peptide) [compound 585],–,853,2468
321 (ALLTEVETPIRNEWGCRCNDSSD; epitope peptide) [compound 321],–,1794,2225
334 (CSLLTEVGMSLCTEV; epitope peptide) [compound 334],2857,1682,–

Substance,Signal (peptides that bind to Z3G1) [1],Signal (peptides that bind to 23K21 and 8I10) [2],Signal (peptides that show specific binding to Z3G1) [1]
580 (SLCTEVGCSLLTEV; epitope peptide) [compound 580],–,858,2382
421 (SLLTEVETPIRNEWGCRCNDSED; epitope peptide) [compound 421],2527,944,–
467 (SLLTEVENPIRNEWGCRCNDSSD; epitope peptide) [compound 467],–,1245,2549
686 (SLLTEVETPIRNEWGCRLNDSSD; epitope peptide) [compound 686],–,728,2363
707 (SLLTEVETPIANEWGCRCNDSSD; epitope peptide) [compound 707],–,708,2302
506 (SLCTEVGSLLCEV; epitope peptide) [compound 506],–,1050,1863
710 (SLLTEVETPIRREWGCRCNDSSD; epitope peptide) [compound 710],–,707,2278
677 (SLLTEVETPIQNEWGCRCNDSSD; epitope peptide) [compound 677],–,731,2372
597 (SLLTEVETGIRNEWGCRCNDSSD; epitope peptide) [compound 597],–,835,2366
268 (SLLTEVETPIRNECGCRCNDSSD; epitope peptide) [compound 268],–,682,2554
327 (SLMTEVETPIRNEWGCRCNDSSD; epitope peptide) [compound 327],–,1729,2149
512 (SLLTEVETPIRNQWGCRCNDSSD; epitope peptide) [compound 512],–,1039,2402
626 (SLLTEVETPIRNEWGCRCYDSSD; epitope peptide) [compound 626],2385,791,–
470 (MSLLTEVGCSLLTEC; epitope peptide) [compound 470],2349,1227,–
649 (SLLTEVETTIRNEWGCRCNDSSD; epitope peptide) [compound 649],–,760,2295
294 (MSCLCECGMSLLTEV; epitope peptide) [compound 294],1006,2039,–
527 (SLLTEVEQPIRNEWGCRCNDSSD; epitope peptide) [compound 527],–,986,2344
397 (SLLTEVETPIRNEWGCRCNQSSD; epitope peptide) [compound 397],2376,842,–
592 (MSLCTEVGCSLLTEC; epitope peptide) [compound 592],1971,840,–
394 (SLLTEVETPIRNEWGCRCNMSSD; epitope peptide) [compound 394],2574,1133,–
